# Measured values taken from patent publication US7759542B2, “Glycine N-methyltransferase (GNMT) animal model and use thereof” (priority 2007, dated 2010).
# Several values for one entry are separate records, joined by “and”; a condition that tells them apart may be missing. Equal values may be shown once. Entries after “also recorded” stand apart in the source; their conditions may differ. Read-outs that look alike come from different tables or passages of the source.
# Key:
# [1] = system: Gnmt−/− mice; details: mouse, in vivo
# [2] = system: GNMT; format: cell-based
# [3] = system: GNMT-TG mice; details: mouse, in vivo
# [4] = system: wild-type mice; details: mouse, in vivo
# [5] = system: HuH-7 cells; assay: MTT cytotoxicity assay of AFB1 on HuH-7 cells; format: cell-based
# Experimental: MTT assay was used to determine the cytotoxicity effect of AFB1. In brief, cells were seeded on 96 well plate. At the time of assay, culture medium was replaced by 100 μL fresh medium containing 10 μL of 5 mg/mL MTT stock solution for each well. After 4 hr of labeling cells with MTT, medium was removed then 100 μL DMSO was added to each well for 10 min at 37° C. Samples were mixed and read absorbance at 540 nm. For half lethal concentration (LC50) determination, seven thousand HuH-7 cells were seeded on 96 well plate for 18 hr. Cells were treated with different concentration of AFB1 and MTT assay was performed at series time points, triplicate for each set. The survival percentage is calculated by dividing the OD value of treatment group by solvent control group. For cytotoxicity assay, five thousand HuH-7 cells were infected with different amount of adenovirus or lentivirus carrying GNMT cDNA for 8 hr then refreshed medium for another 10 hr. After 72 hr of AFB1 treatment, MTT assay was performed to determine the survival percentage.
# MTT assay was used to determine the percentage of survived cells. To optimize the condition of cytotoxicity assay, HuH-7 cells were treated with different concentrations of AFB1 for series time course. […] The cytotoxicity effect of treatment up to 16 μM AFB1 was obscure within 24 hr. […]
# [6] = system: wild-type mice; details: mouse, in vivo; remark: listed apart in the source
substance,measurement,setting,value
aflatoxin B1 [AFB1],HE staining of histological liver sections,[1],"Dysplastic nodule, early HCC and fatty nodules; also recorded: Sclenosing HCC, Dysplastic nodule with focal fatty change"
same,Nodules <0.5 cm,[1]; ip,3 and 6
same,Nodules >0.5 cm,[1]; ip,4 and 5
same,GNMT distribution following AFB1 treatment,[2],partly translocated to cell nuclei
same,Pathological examination of liver,[3],normal pattern
same,ALT,[3]; ip,61 ± 37 and 100 ± 73
same,liver/body weight %,[3]; ip,4.5 ± 0.9% and 3.7 ± 0.4%
same,Pathological examination of liver,[4],dysplasia and HCC
same,ALT,[4]; ip,134 ± 112 and 109 ± 97
same,liver/body weight %,[4]; ip,4.7 ± 0.3% and 4.0 ± 0.7%
same,cytotoxicity effect,[5],obscure
same,HE staining of histological liver sections,[6],no abnormalities
same,ALT,[6]; ip,27.5 ± 0.71 U/L and 22.83 ± 3.92 U/L
same,AST,[6]; ip,72.00 ± 58.92 U/L and 42.50 ± 8.22 U/L
same,Nodules <0.5 cm,[6]; ip,0
same,Nodules >0.5 cm,[6]; ip,0
